{"source": "ChEMBL document CHEMBL1201862", "about": "“PubChem BioAssay data set” (2004)", "experiment_in_all_cases": "DTP human tumour cell line panel, 48 h", "key": {"T47D": {"tested_on": "T47D"}, "BT-549": {"tested_on": "BT-549"}, "M19-MEL": {"tested_on": "M19-MEL"}, "KM-20L2": {"tested_on": "KM-20L2"}, "RXF 631": {"tested_on": "RXF 631"}, "XF498": {"tested_on": "XF498"}, "LXFL 529": {"tested_on": "LXFL 529"}, "DMS-114": {"tested_on": "DMS-114"}, "HOP-18": {"tested_on": "HOP-18"}}, "note": "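Grown in 96-well plates, cells were treated for 48 hours with each compound at five concentrations. Insufficient inhibition: endpoint recorded as highest concentration tested. The concentration for 50% growth inhibition is given as GI50.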 Activity calls are given as the source filed them. Rule as the data show it: active = GI50 up to about 1.1 µM and inactive = higher.", "data": [{"smiles": "O=C1/C(=C\\c2cccc(Oc3ccccc3)c2)S(=O)(=O)C(c2ccccc2)N1c1cc(Cl)ccc1Cl", "note": "(stereo not given)", "values": [{"measurement": "GI50", "setting": "T47D", "result": "20.3 µM (inactive)"}, {"measurement": "GI50", "setting": "BT-549", "result": "18 µM (inactive)"}]}, {"smiles": "Cc1cn(C2CC(n3cc(Cn4cc(I)c(=O)[nH]c4=O)nn3)C(CO)O2)c(=O)[nH]c1=O", "note": "(stereo not given)", "values": [{"measurement": "GI50", "setting": "T47D", "result": "> 100 µM (inactive)"}, {"measurement": "GI50", "setting": "BT-549", "result": "> 100 µM (inactive)"}]}, {"smiles": "Cn1cc2ccccc2c1-c1nc(F)nc(Nc2ccc(N)cc2)n1", "values": [{"measurement": "GI50", "setting": "M19-MEL", "result": "11.9 µM (inactive)"}, {"measurement": "GI50", "setting": "KM-20L2", "result": "18 µM (inactive)"}, {"measurement": "GI50", "setting": "RXF 631", "result": "18.3 µM (inactive)"}, {"measurement": "GI50", "setting": "XF498", "result": "12.5 µM (inactive)"}, {"measurement": "GI50", "setting": "LXFL 529", "result": "16 µM (inactive)"}, {"measurement": "GI50", "setting": "DMS-114", "result": "17.7 µM (inactive)"}]}, {"smiles": "NC(=O)c1ncn(Cc2ccccc2)c1CNC(N)=S", "values": [{"measurement": "GI50", "setting": "M19-MEL", "result": "> 100 µM (inactive)"}, {"measurement": "GI50", "setting": "HOP-18", "result": "> 100 µM (inactive)"}, {"measurement": "GI50", "setting": "RXF 631", "result": "> 100 µM (inactive)"}, {"measurement": "GI50", "setting": "XF498", "result": "> 100 µM (inactive)"}, {"measurement": "GI50", "setting": "LXFL 529", "result": "> 100 µM (inactive)"}, {"measurement": "GI50", "setting": "DMS-114", "result": "> 100 µM (inactive)"}]}, {"smiles": "O=C1Nc2ccccc2/C1=N/Nc1nc(-c2ccccc2)cs1", "values": [{"measurement": "GI50", "setting": "T47D", "result": "26.9 µM (inactive)"}]}, {"smiles": "c1ccc2c(c1)nc1n2CNCC1", "values": [{"measurement": "GI50", "setting": "T47D", "result": "37.2 µM (inactive)"}, {"measurement": "GI50", "setting": "BT-549", "result": "> 100 µM (inactive)"}]}, {"smiles": "Cc1ccnc2nc(-c3ccc(F)cc3)cc(O)c12", "values": [{"measurement": "GI50", "setting": "T47D", "result": "> 72.6 µM (inactive)"}, {"measurement": "GI50", "setting": "BT-549", "result": "> 100 µM (inactive)"}]}, {"smiles": "COc1ccc(/C=C\\c2cc(OC)c(OC)c(OC)c2)c(O)c1O", "note": "[COMBRETASTATIN A-1]", "values": [{"measurement": "GI50", "setting": "M19-MEL", "result": "0.33 µM (active)"}, {"measurement": "GI50", "setting": "T47D", "result": "> 49.9 µM (inactive)"}, {"measurement": "GI50", "setting": "KM-20L2", "result": "8.93 µM (inactive)"}, {"measurement": "GI50", "setting": "BT-549", "result": "< 0.0223 µM (active)"}, {"measurement": "GI50", "setting": "HOP-18", "result": "> 26.4 µM (inactive)"}, {"measurement": "GI50", "setting": "XF498", "result": "0.0551 µM (active)"}, {"measurement": "GI50", "setting": "LXFL 529", "result": "0.611 µM (active)"}, {"measurement": "GI50", "setting": "DMS-114", "result": "0.104 µM (active)"}]}, {"smiles": "CC(NC(CC12CC3CC(CC(C3)C1)C2)C(N)=O)c1ccccc1", "note": "(stereo not given)", "values": [{"measurement": "GI50", "setting": "T47D", "result": "35.6 µM (inactive)"}]}, {"smiles": "Cc1ccc2nnc(NS(=O)(=O)c3cc(C)c(Cl)cc3S)n2n1", "values": [{"measurement": "GI50", "setting": "T47D", "result": "> 100 µM (inactive)"}, {"measurement": "GI50", "setting": "BT-549", "result": "> 100 µM (inactive)"}]}, {"smiles": "COc1ccc(-c2cc(O)c3cccnc3n2)cc1", "values": [{"measurement": "GI50", "setting": "T47D", "result": "51.1 µM (inactive)"}, {"measurement": "GI50", "setting": "BT-549", "result": "77.4 µM (inactive)"}]}, {"smiles": "COC1OC(CO)C(O)C(OC(=O)c2cc(O)c(O)c(O)c2)C1OC(=O)c1cc(O)c(O)c(O)c1", "note": "(stereo not given)", "values": [{"measurement": "GI50", "setting": "BT-549", "result": "> 100 µM (inactive)"}]}, {"smiles": "CCOC(=O)c1nc2ccccc2nc1Nc1ccc(F)cc1", "values": [{"measurement": "GI50", "setting": "T47D", "result": "22.9 µM (inactive)"}, {"measurement": "GI50", "setting": "BT-549", "result": "16.2 µM (inactive)"}]}, {"smiles": "COc1ccc2c(C)cc(N/N=C/c3ccc(OC)c4ccccc34)nc2c1", "values": [{"measurement": "GI50", "setting": "T47D", "result": "5.51 µM (inactive)"}, {"measurement": "GI50", "setting": "BT-549", "result": "20.1 µM (inactive)"}]}, {"smiles": "CC1=C(Cl)C=CP(=O)(Oc2ccccc2)C1", "note": "(stereo not given)", "values": [{"measurement": "GI50", "setting": "KM-20L2", "result": "> 100 µM (inactive)"}, {"measurement": "GI50", "setting": "HOP-18", "result": "23.1 µM (inactive)"}, {"measurement": "GI50", "setting": "XF498", "result": "57.7 µM (inactive)"}, {"measurement": "GI50", "setting": "LXFL 529", "result": "15.3 µM (inactive)"}, {"measurement": "GI50", "setting": "DMS-114", "result": "25.4 µM (inactive)"}]}, {"smiles": "O=C(N[C@@H](Cc1ccccc1)B(O)O)[C@H](Cc1cccc2ccccc12)NC(=O)N1CCOCC1", "values": [{"measurement": "GI50", "setting": "T47D", "result": "0.00104 µM (active)"}, {"measurement": "GI50", "setting": "BT-549", "result": "0.000468 µM (active)"}]}, {"smiles": "C/C(=N\\NC(=O)C[N+](C)(C)C)c1sc(-c2cccnc2)nc1C", "values": [{"measurement": "GI50", "setting": "M19-MEL", "result": "> 100 µM (inactive)"}, {"measurement": "GI50", "setting": "KM-20L2", "result": "> 100 µM (inactive)"}, {"measurement": "GI50", "setting": "RXF 631", "result": "> 100 µM (inactive)"}, {"measurement": "GI50", "setting": "XF498", "result": "> 100 µM (inactive)"}, {"measurement": "GI50", "setting": "LXFL 529", "result": "67 µM (inactive)"}, {"measurement": "GI50", "setting": "DMS-114", "result": "> 100 µM (inactive)"}]}, {"smiles": "Nc1ncnc2c(C3OC(CO)C(O)C3O)n[nH]c12", "note": "(stereo not given)", "values": [{"measurement": "GI50", "setting": "M19-MEL", "result": "2.42 µM (inactive)"}, {"measurement": "GI50", "setting": "KM-20L2", "result": "0.229 µM (active)"}, {"measurement": "GI50", "setting": "HOP-18", "result": "0.0592 µM (active)"}, {"measurement": "GI50", "setting": "XF498", "result": "0.158 µM (active)"}, {"measurement": "GI50", "setting": "DMS-114", "result": "0.208 µM (active)"}]}, {"smiles": "COc1ccc(Sc2ccccc2[N+](=O)[O-])cc1", "values": [{"measurement": "GI50", "setting": "M19-MEL", "result": "7.23 µM (inactive)"}, {"measurement": "GI50", "setting": "KM-20L2", "result": "> 10 µM (inactive)"}, {"measurement": "GI50", "setting": "HOP-18", "result": "> 100 µM (inactive)"}, {"measurement": "GI50", "setting": "RXF 631", "result": "9.75 µM (inactive)"}, {"measurement": "GI50", "setting": "LXFL 529", "result": "27.5 µM (inactive)"}]}, {"smiles": "CC1=C2N3C[C@@H](n4c(=O)n(C)c(=O)n43)C23CCC1n1c(=O)n(C)c(=O)n13", "values": [{"measurement": "GI50", "setting": "M19-MEL", "result": "> 100 µM (inactive)"}, {"measurement": "GI50", "setting": "KM-20L2", "result": "> 100 µM (inactive)"}, {"measurement": "GI50", "setting": "HOP-18", "result": "> 100 µM (inactive)"}, {"measurement": "GI50", "setting": "XF498", "result": "> 100 µM (inactive)"}, {"measurement": "GI50", "setting": "LXFL 529", "result": "85.1 µM (inactive)"}, {"measurement": "GI50", "setting": "DMS-114", "result": "30.8 µM (inactive)"}]}, {"smiles": "C[Si](C)(C)C1=C2C(=O)c3ccccc3C(=O)C2=C([Si](C)(C)C)[C@@H]2CCCC[C@H]12", "values": [{"measurement": "GI50", "setting": "T47D", "result": "> 100 µM (inactive)"}, {"measurement": "GI50", "setting": "BT-549", "result": "> 100 µM (inactive)"}]}, {"smiles": "CCCCc1ccc(Nc2nc(S)c3ncn(COCCO)c3n2)cc1", "values": [{"measurement": "GI50", "setting": "T47D", "result": "11.6 µM (inactive)"}, {"measurement": "GI50", "setting": "BT-549", "result": "56.9 µM (inactive)"}]}, {"smiles": "CNc1ccc([N+](=O)[O-])cc1C(=O)N1CCC[C@H]1CO", "values": [{"measurement": "GI50", "setting": "T47D", "result": "> 100 µM (inactive)"}, {"measurement": "GI50", "setting": "BT-549", "result": "> 100 µM (inactive)"}]}, {"smiles": "CC1OC(OC2C(OC(=O)[C@]34CCC(C)(C)C[C@H]3C3=CC[C@@H]5[C@@]6(C)CC[C@H](OC7OC(CO)C(O)C(O)C7OC7OC(CO)C(O)C(O)C7O)C(C)(C)[C@@H]6CC[C@@]5(C)[C@]3(C)CC4)OCC(O)C2O)C(O)C(OC2OCC(O)C(O)C2O)C1OC1OCC(O)C(OC2OCC(O)C(O)C2O)C1O", "note": "(stereo not given in full)", "values": [{"measurement": "GI50", "setting": "T47D", "result": "14.7 µM (inactive)"}, {"measurement": "GI50", "setting": "BT-549", "result": "8.28 µM (inactive)"}]}, {"smiles": "O=C(N/N=C\\c1ccc([N+](=O)[O-])cc1)Nc1ccccc1", "values": [{"measurement": "GI50", "setting": "T47D", "result": "> 100 µM (inactive)"}, {"measurement": "GI50", "setting": "BT-549", "result": "> 100 µM (inactive)"}]}, {"smiles": "O=C1CCCC/C1=C\\c1ccc(Cl)c(Cl)c1", "values": [{"measurement": "GI50", "setting": "M19-MEL", "result": "20.7 µM (inactive)"}, {"measurement": "GI50", "setting": "KM-20L2", "result": "20.7 µM (inactive)"}, {"measurement": "GI50", "setting": "HOP-18", "result": "18.8 µM (inactive)"}, {"measurement": "GI50", "setting": "LXFL 529", "result": "17.1 µM (inactive)"}, {"measurement": "GI50", "setting": "DMS-114", "result": "18.7 µM (inactive)"}]}, {"smiles": "Cc1cc(C#N)c(Nc2ccc(F)cc2[N+](=O)[O-])s1", "values": [{"measurement": "GI50", "setting": "T47D", "result": "> 100 µM (inactive)"}, {"measurement": "GI50", "setting": "BT-549", "result": "24.4 µM (inactive)"}]}, {"smiles": "COc1cc(/C=C/C(=O)OCC23CC[C@@]4(C(=O)O)CCC(C)[C@H](C)C4C2=CCC2[C@@]4(C)CC[C@H](O)C(C)(C)C4CC[C@]23C)ccc1O", "note": "(stereo not given in full)", "values": [{"measurement": "GI50", "setting": "T47D", "result": "48.5 µM (inactive)"}, {"measurement": "GI50", "setting": "BT-549", "result": "19.5 µM (inactive)"}]}, {"smiles": "CCCCCCCCCc1cc(O)c(O)cc1CCCCCCCCC", "values": [{"measurement": "GI50", "setting": "T47D", "result": "> 10 µM (inactive)"}, {"measurement": "GI50", "setting": "BT-549", "result": "> 10 µM (inactive)"}]}, {"smiles": "COc1ccc(N2C(=O)C3c4[nH]c5ccccc5c4C4CCCCCCCC4C3C2=O)cc1", "note": "(stereo not given)", "values": [{"measurement": "GI50", "setting": "T47D", "result": "> 10 µM (inactive)"}]}]}
